Results as given in patent publication US20220119379A1, “IMMUNOMODULATOR” (HITGEN INC., priority 2019, published 2022).
Read-outs that look alike come from different tables or passages of the source.

Columns and labels:
[1] = target: T1, Sting protein (Homo sapiens, UniProt Q86WV6, G230A/H232R/R293Q/R71H); experiment: Agonistic function test on Sting protein: IFN-β and CXCL10 (IP10) cytokines produced by THP1 cells (ELISA); format: cell-based; details: for EC50: 18 hours, ELISA of supernatant; for activity of stimulating IFN-β and CXCL10 (IP10) cytokines produced by THP1 cells (in words): listed compounds compared with the reference compound
T1 construct: endogenous in cells; host or cells: THP1 cells (Shanghai Cell Bank)
T1 sequence (Q86WV6 whole entry R71H/G230A/H232R/R293Q): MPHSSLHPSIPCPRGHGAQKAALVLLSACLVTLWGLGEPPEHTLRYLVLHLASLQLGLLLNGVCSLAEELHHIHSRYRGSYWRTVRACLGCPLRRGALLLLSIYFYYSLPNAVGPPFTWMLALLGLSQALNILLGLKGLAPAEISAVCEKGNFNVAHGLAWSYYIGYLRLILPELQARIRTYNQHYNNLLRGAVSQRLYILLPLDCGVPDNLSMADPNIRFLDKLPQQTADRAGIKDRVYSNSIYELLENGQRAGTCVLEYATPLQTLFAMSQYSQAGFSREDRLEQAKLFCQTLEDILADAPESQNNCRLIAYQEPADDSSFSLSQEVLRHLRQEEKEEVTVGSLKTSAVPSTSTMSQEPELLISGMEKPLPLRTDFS
Procedure: In this experiment, the function of sting agonist was evaluated by detecting the changes of IFN-β and CXCL10 (IP10) cytokines produced by human peripheral blood mononuclear cell line THP1 cells (Shanghai Cell Bank) stimulated by the compounds. On the first day of the experiment, the ELISA plate was coated according to the IFN-β (R&D, #DY814-05) and IP10 (BD, #550926) ELISA test kit instructions. The compound was dissolved into DMSO stock solution and diluted with culture medium to a 2× working concentration, added to a 96-well plate, 100 μL per well. The THP1 cells in the logarithmic growth phase were taken to count, and were diluted to a concentration of 2*10^6/mL, added to the above-mentioned 96-well plate containing the compounds, with […], per well, mixed well, and incubated in a 37° C., 5% CO2 incubator for 18 hours. On the second day, the above cell culture supernatant was taken, 100 μL per well, and tested according to IFN-β and IP10 ELISA test kits respectively. The OD450 value was read, and converted into IFN-β and IP10 concentration according to the standard curve, and fitted with GraphPad 5.0 to calculate the EC50 value of the dose-efficiency curve.

[2] = target: Sting protein (Homo sapiens, UniProt Q86WV6); experiment: Binding affinity test of the compound and Sting protein by protein thermal transfer test (TSA); details: Kd fitted from change of ΔTm with compound concentration
Sequence of Sting protein (Homo sapiens, UniProt Q86WV6) (Q86WV6 whole entry H232R, species assumed): as the sequence (Q86WV6 whole entry R71H/G230A/H232R/R293Q) above, with H71R, A230G, Q293R counted along it
Procedure: The protein thermal transfer test (TSA) was used to determine the binding affinity of the compound to Sting protein. The 100 ug/ml Sting protein was mixed with different concentrations of the compound and 5× SYPRO Orange dye in a buffer of 20 mM Hepes, 150 mM NaCl, 1 mM MgCl2, 1 mM DTT, pH=7.5. The protein dissolution curve was measured on a qPCR instrument, the Tm value was fitted with Protein Thermal Shift Software 1.3 software, and the Tm difference of the protein was calculated when different concentrations of compound and no compound were added. The dissociation constant Kd was fitted and obtained according to the change of ΔTm with the concentration of the compound. […] The Kd value of each compound is classified according to the following instructions: […]

[3] = test system: CT26 cells; experiment: Tumor inhibitory effect, CT26 tumor re-excitation model; format: in vivo, mice
Procedure: The tumor regression of each group of mice in the CT26 anti-tumor efficacy model of the above experimental example 4 was further observed. After 30 days of the last administration, CT26 cells were inoculated subcutaneously on the back. Each mouse was inoculated with 100 μL cell suspension containing 5×10^5 cells; mice that have not been treated with drugs were used as a control group to inoculate CT26 cells in the same way. The tumor was observed and the growth of the tumor was recorded.

| Structure (SMILES) | EC50 ([1]; read-out: IFN-β EC50) | EC50 ([1]; read-out: IP10 EC50) | activity of stimulating IFN-β and CXCL10 (IP10) cytokines produced by THP1 cells (in words) [1] | Kd [2] | tumor curve in CT26 tumor re-excitation model (FIG. 2) ([3]; 1.5 mg/kg) | tumor curve in CT26 tumor re-excitation model (FIG. 2) ([3]; 4.5 mg/kg) | tumor curve in CT26 tumor re-excitation model (FIG. 2) ([3]; 1 mg/kg) | tumor curve in CT26 tumor re-excitation model (FIG. 2) ([3]; 3 mg/kg) |
| --- | --- | --- | --- | --- | --- | --- | --- | --- |
| CCc1nc(C)sc1C(=O)Nc1nc2cc(C(N)=O)cc(OC)c2n1C/C=C/Cn1c(NC(=O)c2cc(C)nn2CC)nc2cc(C(N)=O)cc(OCCCN3CCOCC3)c21 [Example 2, (E)-N-(5-carbamoyl-1-(4-(5-carbamoyl-2-(1-ethyl-3-methyl-1H-pyrazole-5-formylamino)-7-(3-morpholino)-1H-benzo[d]imidazol-1-yl)but-2-en-1-yl)-7-methoxy-1H-benzo[d]imidazol-2-yl)-4-ethyl-2-methylthiazole-5-formamide] | 10 to 100 nM | 10 to 100 nM | comparable or even higher activity | 1000 to 10000 nM | overlap | overlap | – | – |
| CCc1nc(C)sc1C(=O)Nc1nc2cc(C(N)=O)cc(SC)c2n1C/C=C/Cn1c(NC(=O)c2cc(C)nn2CC)nc2cc(C(N)=O)cc(OCCCN3CCOCC3)c21 [Example 5] | 10 to 100 nM | < 10 nM | comparable or even higher activity | 1000 to 10000 nM | overlap | – | – | – |
| CCc1nc(C)sc1C(=O)Nc1nc2cc(C(N)=O)cc(OC)c2n1C/C=C/Cn1c(NC(=O)c2cc(C)nn2CC)nc2cc(C(N)=O)cc(OCCCN3CCN(C4CC4)CC3)c21 [Example 15] | 10 to 100 nM | 10 to 100 nM | comparable or even higher activity | 1000 to 10000 nM | – | – | overlap | overlap |
| CCc1nc(C)sc1C(=O)Nc1nc2cc(C(N)=O)cc(OCCCN3CCN(CC)CC3)c2n1C/C=C/Cn1c(NC(=O)c2cc(C)nn2CC)nc2cc(C(N)=O)cc(SC)c21 [Example 17] | 100 to 1000 nM | 10 to 100 nM | – | 1000 to 10000 nM | overlap | – | – | – |
| CCc1nc(C)sc1C(=O)Nc1nc2cc(C(N)=O)cc(OC)c2n1C/C=C/Cn1c(NC(=O)c2cc(C)nn2CC)nc2cc(C(N)=O)cc(OCCCN3CCN(C(C)=O)CC3)c21 [Example 29] | 100 to 1000 nM | 10 to 100 nM | – | 1000 to 10000 nM | – | – | overlap | – |
| CCn1nc(C)cc1C(=O)Nc1nc2cc(C(N)=O)cc(SC)c2n1C/C=C/Cn1c(NC(=O)c2c(F)c(C)nn2CC)nc2cc(C(N)=O)cc(OCCCN3CCOCC3)c21 [Example 51, (E)-1-(4-(5-(5-carbamoyl-2-)(1-styrene-3-methyl-1H-pyrazole-5-formylamino)-7-(methylthio)-1H-benzo[d]imidazol-1-yl)but-2-en-1-yl)-2-(1-styrene-4-fluoro-3-methyl-1H-pyrazole-5-anthralamido)-7-(3-morpholinopropoxy)-1H-benzo[d]imidazole-5-formylamide] | 10 to 100 nM | < 10 nM | comparable or even higher activity | 1000 to 10000 nM | – | – | – | – |
| CCc1nc(C)sc1C(=O)Nc1nc2cc(C(N)=O)cc(SC)c2n1C/C=C/Cn1c(NC(=O)c2c(F)c(C)nn2CC)nc2cc(C(N)=O)cc(OCCCN3CCOCC3)c21 [Example 52] | 10 to 100 nM | < 10 nM | comparable or even higher activity | 1000 to 10000 nM | – | – | – | – |
| CCn1nc(C)c(F)c1C(=O)Nc1nc2cc(C(N)=O)cc(OCCCN3CCOCC3)c2n1C/C=C/Cn1c(NC(=O)c2c(F)c(C)nn2CC)nc2cc(C(N)=O)cc(SC)c21 [Example 53, (E)-1-(4-(5-carbamoyl-2-(1-ethyl-4-fluoro-3-methyl-1H-pyrazole-5-carboxamino)-7-(3-morpholinopropoxy)-1H-benzo[d]imidazol-1-yl)but-2-en-1-yl)-2-(1-ethyl-4-fluoro-3-methyl-1H-pyrazole-5-formylamino)-7-(methylthio)-1H-benzo[d]imidazole-5-carboxamide] | 10 to 100 nM | < 10 nM | comparable or even higher activity | 1000 to 10000 nM | – | – | – | – |
